Consider 32 compounds from patent publication US20260083851A1 (AVILAR THERAPEUTICS, INC., priority 2022, published 2026).

SMILES strings stand for the structures.

In one test the target is T1, ASGP receptor (biotinylated ASGPR) (Homo sapiens, UniProt P07306).
T1 construct: biotin (biotinylated)
T1 sequence (P07306 1-291): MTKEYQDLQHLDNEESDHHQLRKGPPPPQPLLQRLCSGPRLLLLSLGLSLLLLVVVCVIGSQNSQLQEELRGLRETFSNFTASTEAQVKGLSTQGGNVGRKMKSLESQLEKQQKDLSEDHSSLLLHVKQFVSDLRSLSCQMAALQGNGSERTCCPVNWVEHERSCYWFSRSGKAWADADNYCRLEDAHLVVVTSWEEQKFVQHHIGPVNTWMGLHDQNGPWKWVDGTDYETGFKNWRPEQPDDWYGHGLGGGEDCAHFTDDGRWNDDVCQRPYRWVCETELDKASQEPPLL
The class given is binding. Conditions: SPR, Biacore 8K, 25° C.; Table 1B, numeric bound; read-out: ASGPR Kd. In general terms: SPR reads the build-up and loss of mass on a sensor chip optically.
Take `OC[C@H]1OC[C@H](NC2CCCC(C(F)(F)F)C2)[C@@H](O)[C@H]1O` (stereo partly drawn) [A158, (2R,3R,4R,5S)-2-(hydroxymethyl)-5-((3-(trifluoromethyl)cyclohexyl)amino) tetrahydro-2H-pyran-3,4-diol]: the Kd was > 30 µM. Same read-out and setting: to `OC[C@H]1OC[C@H](NC2CCCCC2)[C@@H](O)[C@H]1O` [A159, (2R,3R,4R,5S)-5-(cyclohexylamino)-2-(hydroxymethyl)tetrahydro-2H-pyran-3,4-diol] belongs > 30 µM; to `OC[C@H]1OC[C@H](N(CC2CC2)CC2CC2)[C@@H](O)[C@H]1O` [A160, (2R,3R,4R,5S)-5-(bis(cyclopropylmethyl)amino)-2-(hydroxymethyl)tetrahydro-2H-pyran-3,4-diol], > 30 µM. Regarding `CC(C)N[C@H]1CO[C@H](CO)[C@H](O)[C@@H]1O` [A163, (2R,3R,4R,5S)-2-(hydroxymethyl)-5-(isopropylamino)tetrahydro-2H-pyran-3,4-diol], the Kd was > 30 µM.

For `OC[C@H]1OC[C@H](NC2CCC2)[C@@H](O)[C@H]1O` [A166, (2R,3R,4R,5S)-5-(cyclobutylamino)-2-(hydroxymethyl)tetrahydro-2H-pyran-3,4-diol], the Kd is > 30 µM.

Still in this test, the particulars now being: SPR, Biacore 8K, 25° C.; Table 1B; read-out: ASGPR Kd.
Consider `OC[C@H]1OC[C@H](Nc2cccc(OC(F)(F)F)n2)[C@@H](O)[C@H]1O` [A143, (2R,3R,4R,5S)-2-(hydroxymethyl)-5-((6-(trifluoromethoxy)pyridin-2-yl)amino)tetrahydro-2H-pyran-3,4-diol], for which the equilibrium dissociation constant (Kd) was < 10 µM. As to `O[C@@H]1[C@H](O)[C@@H](Nc2cccc(OC(F)(F)F)n2)CO[C@@H]1COc1cccc(OC(F)(F)F)n1` [A144, (2R,3R,4R,5S)-5-((6-(trifluoromethoxy)pyridin-2-yl)amino)-2-(((6-(trifluoromethoxy)pyridin-2-yl)oxy)methyl) tetrahydro-2H-pyran-3,4-diol], the Kd was < 10 µM. For the compound `OC[C@H]1OC[C@H](Nc2cncc(Cl)n2)[C@@H](O)[C@H]1O` [A147, (2R,3R,4R,5S)-5-((6-chloropyrazin-2-yl)amino)-2-(hydroxymethyl) tetrahydro-2H-pyran-3,4-diol], the dissociation constant (Kd) is < 10 µM. Consider `O=C(c1ccc(Cc2ccccc2)cc1)N1C[C@H](Nc2cncc(C(F)(F)F)n2)[C@@H](O)[C@@H](O)C1` [A148, (4-benzylphenyl)((3S,4R,5S)-3,4-dihydroxy-5-((6-(trifluoromethyl)pyrazin-2-yl)amino)piperidin-1-yl)methanone], for which the dissociation constant (Kd) is < 10 µM.

As to `O=C(OCc1ccccc1)N1C[C@H](Nc2cncc(C(F)(F)F)n2)[C@@H](O)[C@@H](O)C1` [A149, benzyl (3S,4R,5S)-3,4-dihydroxy-5-((6-(trifluoromethyl)pyrazin-2-yl)amino)piperidine-1-carboxylate], the Kd is < 10 µM. Still for that read-out and setting: in the case of `O[C@@H]1[C@@H](Nc2cncc(C(F)(F)F)n2)CNC[C@@H]1O` [A150, (3S,4R,5S)-5-((6-(trifluoromethyl)pyrazin-2-yl)amino)piperidine-3,4-diol] it was < 10 µM.

`COc1cc(N[C@H]2CO[C@H](CO)[C@H](O)[C@@H]2O)nc(C(F)(F)F)c1` [A151, (2R,3R,4R,5S)-2-(hydroxymethyl)-5-((4-methoxy-6-(trifluoromethyl)pyridin-2-yl)amino)tetrahydro-2H-pyran-3,4-diol]: the Kd was < 10 µM. On to `O=C1c2ccccc2CN1C[C@H]1OC[C@H](Nc2cncc(C(F)(F)F)n2)[C@@H](O)[C@H]1O` [A152, 2-(((2R,3R,4R,5S)-3,4-dihydroxy-5-((6-(trifluoromethyl)pyrazin-2-yl)amino)tetrahydro-2H-pyran-2-yl)methyl) isoindolin-1-one], for which the Kd is < 10 µM. On the same count and under the same terms, to `OC[C@H]1OC[C@H](Nc2cccc(Br)n2)[C@@H](O)[C@H]1O` [A153, (2R,3R,4R,5S)-5-((6-bromopyridin-2-yl)amino)-2-(hydroxymethyl)tetrahydro-2H-pyran-3,4-diol] belongs < 10 µM; to `O[C@@H]1[C@H](O)[C@@H](Nc2cncc(F)n2)CO[C@@H]1COc1cncc(F)n1` [A154, (2R,3R,4R,5S)-5-((6-fluoropyrazin-2-yl)amino)-2-(((6-fluoropyrazin-2-yl)oxy)methyl)tetrahydro-2H-pyran-3,4-diol], < 10 µM. Same read-out and setting: to `C[C@H]1OC[C@H](Nc2cncc(C(F)(F)F)n2)[C@@H](O)[C@H]1O` [A155, (2R,3R,4R,5S)-2-methyl-5-((6-(trifluoromethyl)pyrazin-2-yl)amino)tetrahydro-2H-pyran-3,4-diol] belongs < 10 µM; to `COc1cncnc1N[C@H]1CO[C@H](CO)[C@H](O)[C@@H]1O` [A156, (2R,3R,4R,5S)-2-(hydroxymethyl)-5-((5-methoxypyrimidin-4-yl)amino)tetrahydro-2H-pyran-3,4-diol], 10 to 100 µM. The same measure, in the same setting: in the case of `O=C1CCCN1C[C@H]1OC[C@H](Nc2cncc(C(F)(F)F)n2)[C@@H](O)[C@H]1O` [A157, 1-(((2R,3R,4R,5S)-3,4-dihydroxy-5-((6-(trifluoromethyl)pyrazin-2-yl)amino)tetrahydro-2H-pyran-2-yl)methyl)pyrrolidin-2-one] it was < 10 µM; in that of `OC[C@H]1OC[C@H](Sc2cccc(C(F)(F)F)n2)[C@@H](O)[C@H]1O` [A161, (2R,3R,4S,5S)-2-(hydroxymethyl)-5-((6-(trifluoromethyl)pyridin-2-yl)thio)tetrahydro-2H-pyran-3,4-diol], < 10 µM. Regarding `O[C@@H]1[C@H](O)[C@@H](Nc2cncc(C(F)(F)F)n2)CO[C@@H]1CF` [A162, (2S,3R,4R,5S)-2-(fluoromethyl)-5-((6-(trifluoromethyl)pyrazin-2-yl)amino)tetrahydro-2H-pyran-3,4-diol], the Kd was < 10 µM. In the case of `COc1cccc(N[C@H]2CO[C@H](CO)[C@H](O)[C@@H]2O)n1` [A164, (2R,3R,4R,5S)-2-(hydroxymethyl)-5-((6-methoxypyridin-2-yl)amino)tetrahydro-2H-pyran-3,4-diol], the Kd is < 10 µM. Still for that read-out and setting: to `NCc1ccc(N2CCC(CN3CCN(C[C@H]4OC[C@H](Nc5cncc(C(F)(F)F)n5)[C@@H](O)[C@H]4O)CC3)CC2)cc1` [A165, (2R,3R,4R,5S)-2-((4-((1-(4-(aminomethyl)phenyl)piperidin-4-yl)methyl)piperazin-1-yl)methyl)-5-((6-(trifluoromethyl)pyrazin-2-yl)amino)tetrahydro-2H-pyran-3,4-diol] belongs < 10 µM.

The test is the same for the next values; noted with them: SPR, Biacore 8K, 25° C.; Table 1C, numeric bound; read-out: ASGPR KD.
Turning to `OC[C@H]1OC[C@H](Nc2ncc3c(n2)CCC3)[C@@H](O)[C@H]1O` [A182, (2R,3R,4R,5S)-5-((6,7-dihydro-5H-cyclopenta[d]pyrimidin-2-yl)amino)-2-(hydroxymethyl)tetrahydro-2H-pyran-3,4-diol], the Kd is > 30 µM.

As for `OC[C@H]1OC[C@H](Nc2ncc3cn[nH]c3n2)[C@@H](O)[C@H]1O` [A183, (2R,3R,4R,5S)-5-((1H-pyrazolo[3,4-d]pyrimidin-6-yl)amino)-2-(hydroxymethyl)tetrahydro-2H-pyran-3,4-diol], the Kd is > 30 µM. Same read-out and setting: to `OC[C@H]1OC[C@H](Nc2ncc3cc[nH]c3n2)[C@@H](O)[C@H]1O` [A184, (2R,3R,4R,5S)-5-((7H-pyrrolo[2,3-d]pyrimidin-2-yl)amino)-2-(hydroxymethyl)tetrahydro-2H-pyran-3,4-diol] belongs > 30 µM. On the same count and under the same terms, to `CC#Cc1cccc(N[C@H]2CO[C@H](CO)[C@H](O)[C@@H]2O)n1` [A189, (2R,3R,4R,5S)-2-(hydroxymethyl)-5-((6-(prop-1-yn-1-yl)pyridin-2-yl)amino)tetrahydro-2H-pyran-3,4-diol] belongs > 30 µM.

Staying with this test, now noted: SPR, Biacore 8K, 25° C.; Table 1C; read-out: ASGPR KD.
Take `O[C@@H]1[C@H](O)[C@@H](Nc2cncc(C(F)(F)F)n2)CO[C@@H]1C(F)F` [A179, (2S,3R,4R,5S)-2-(difluoromethyl)-5-((6-(trifluoromethyl)pyrazin-2-yl)amino)tetrahydro-2H-pyran-3,4-diol]: the Kd was < 10 µM. The same measure, in the same setting: in the case of `Cc1cncc(N[C@H]2CO[C@H](CO)[C@H](O)[C@@H]2O)n1` [A180, (2R,3R,4R,5S)-2-(hydroxymethyl)-5-((6-methylpyrazin-2-yl)amino)tetrahydro-2H-pyran-3,4-diol] it was < 10 µM; in that of `OC[C@H]1OC[C@H](Nc2cccc(OC(F)F)n2)[C@@H](O)[C@H]1O` [A185, (2R,3R,4R,5S)-5-((6-(difluoromethoxy)pyridin-2-yl)amino)-2-(hydroxymethyl)tetrahydro-2H-pyran-3,4-diol], < 10 µM; in that of `O=C(O)c1ccc(OC[C@H]2OC[C@H](Nc3cncc(C(F)(F)F)n3)[C@@H](O)[C@H]2O)nn1` [A186, 6-(((2R,3R,4R,5S)-3,4-dihydroxy-5-((6-(trifluoromethyl)pyrazin-2-yl)amino)tetrahydro-2H-pyran-2-yl)methoxy)pyridazine-3-carboxylic acid], < 10 µM. Still for that read-out and setting: in the case of `O=C(O)c1cnc(OC[C@H]2OC[C@H](Nc3cncc(C(F)(F)F)n3)[C@@H](O)[C@H]2O)cn1` [A187, 5-(((2R,3R,4R,5S)-3,4-dihydroxy-5-((6-(trifluoromethyl)pyrazin-2-yl)amino)tetrahydro-2H-pyran-2-yl)methoxy)pyrazine-2-carboxylic acid] it was < 10 µM; in that of `N#Cc1ccc(OC[C@H]2OC[C@H](Nc3cncc(C(F)(F)F)n3)[C@@H](O)[C@H]2O)nn1` [A188, 6-(((2R,3R,4R,5S)-3,4-dihydroxy-5-((6-(trifluoromethyl)pyrazin-2-yl)amino)tetrahydro-2H-pyran-2-yl)methoxy)pyridazine-3-carbonitrile], < 10 µM.

For orientation: Kd means the equilibrium constant for the complex coming apart.
